We go through 3 compounds from BindingDB's records for doi:10.1016/j.bmcl.2013.01.056 (Fudan University, 2013).

For orientation: IC50 means the concentration needed to halve the response being measured. Read a high IC50 as lower potency.

The assay has as its target Signal transducer and activator of transcription 3 (Homo sapiens, UniProt P40763). Nature of the assay: Inhibition of IL-6-induced STAT3 pathway in human HepG2 cells by luciferase reporter gene assay.

Chain of Signal transducer and activator of transcription 3 (P40763 whole entry): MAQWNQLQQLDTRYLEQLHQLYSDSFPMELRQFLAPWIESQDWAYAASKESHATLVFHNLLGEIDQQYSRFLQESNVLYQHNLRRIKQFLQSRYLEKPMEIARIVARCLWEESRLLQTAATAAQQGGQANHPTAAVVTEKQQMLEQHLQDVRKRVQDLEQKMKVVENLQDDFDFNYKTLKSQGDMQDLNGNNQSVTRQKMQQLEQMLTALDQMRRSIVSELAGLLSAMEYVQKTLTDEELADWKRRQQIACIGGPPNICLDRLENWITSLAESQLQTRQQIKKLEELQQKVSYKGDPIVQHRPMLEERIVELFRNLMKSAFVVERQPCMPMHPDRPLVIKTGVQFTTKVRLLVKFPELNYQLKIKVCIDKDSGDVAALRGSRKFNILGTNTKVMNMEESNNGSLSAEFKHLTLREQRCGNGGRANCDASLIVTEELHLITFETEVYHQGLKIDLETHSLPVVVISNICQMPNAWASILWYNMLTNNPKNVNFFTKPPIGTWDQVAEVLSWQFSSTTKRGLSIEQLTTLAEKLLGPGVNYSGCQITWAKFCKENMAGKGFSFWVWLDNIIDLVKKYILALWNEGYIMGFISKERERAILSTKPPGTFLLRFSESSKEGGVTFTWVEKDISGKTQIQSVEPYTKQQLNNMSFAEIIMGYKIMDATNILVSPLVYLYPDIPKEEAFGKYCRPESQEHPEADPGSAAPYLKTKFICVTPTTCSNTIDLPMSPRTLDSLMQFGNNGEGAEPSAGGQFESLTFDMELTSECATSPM

`Oc1ccc(NCc2cc(Cl)ccc2OCc2ccc(Cl)cc2)cc1` yielded a 50% inhibitory concentration (IC50) of 26.7 µM.

Take `NS(=O)(=O)c1ccc(NCc2cc(Cl)ccc2OCc2ccccc2)cc1`: the IC50 was determined as 24.3 µM.

With `OCCNCc1cc(Br)ccc1OCc1ccc(Cl)cc1`, the half-maximal inhibitory concentration (IC50) worked out at 59.9 µM.
